Data reported in PubChem BioAssay AID330 (DTP/NCI, 2004).
Values joined by “and” are separate entries in the source; they are usually repeats but may differ in a detail not shown here. Equal entries are not always repeated. Inconclusive results and toxic doses are left out. The calls were made as follows: active = survival T/C of 150% or more; inactive = T/C below 125% in these data.

Tested on: P388 leukemia ip, CD2F1 mice, survival T/C
Test: NCI In Vivo Anticancer Drug Screen. Data for tumor model P388 Leukemia (intraperitoneal) in CD2F1 (CDF1) mice
Conditions: endpoint: median survival time, higher = longer survival
Summary of the method: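 Mice carrying the transplanted tumor received test compound or vehicle. Survival was recorded in each group, and the value is the treated-group measurement divided by that of the vehicle-treated control group.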

[1] = dose: 60.0 mg/kg/injection, schedule: Q01DX005 (ip), vehicle: saline with Tween-80
[2] = dose: 120.0 mg/kg/injection, schedule: Q01DX005 (ip), vehicle: saline with Tween-80
[3] = dose: 100.0 mg/kg/injection, schedule: Q01DX009 (ip), vehicle: Klucel (hydroxypropylcellulose) (HPC)
[4] = dose: 200.0 mg/kg/injection, schedule: Q01DX009 (ip), vehicle: Klucel (hydroxypropylcellulose) (HPC)
[5] = dose: 50.0 mg/kg/injection, schedule: Q01DX009 (ip), vehicle: saline with Tween-80
[6] = dose: 50.0 mg/kg/injection, schedule: Q01DX009 (ip), vehicle: saline
[7] = dose: 100.0 mg/kg/injection, schedule: Q01DX009 (ip), vehicle: saline with Tween-80
[8] = dose: 50.0 mg/kg/injection, schedule: Q01DX005 (ip), vehicle: saline with Tween-80
[9] = dose: 50.0 mg/kg/injection, schedule: Q01DX005 (ip), vehicle: Klucel (hydroxypropylcellulose) (HPC)
[10] = dose: 100.0 mg/kg/injection, schedule: Q01DX005 (ip), vehicle: Klucel (hydroxypropylcellulose) (HPC)
[11] = dose: 200.0 mg/kg/injection, schedule: Q01DX005 (ip), vehicle: Klucel (hydroxypropylcellulose) (HPC)

Measured: T/C

CCn1cc(C(=O)O)c(=O)c2ccc(C)nc21 (tested in a mixture with another compound)
inactive: dose: 100.0 mg/kg/injection, schedule: Q04DX002 (ip), vehicle: saline with Tween-80 99 % of control | dose: 200.0 mg/kg/injection, schedule: Q04DX002 (ip), vehicle: saline with Tween-80 91 % of control

O=c1[nH]cc(NS(=O)(=O)c2ccccc2)c(=O)[nH]1
inactive: [1] 105 % of control | [2] 101 % of control

FC(F)(F)SN1CN(SC(F)(F)F)CN(SC(F)(F)F)CN(SC(F)(F)F)CN(SC(F)(F)F)C1
inactive: dose: 60.0 mg/kg/injection, schedule: Q01DX005 (ip), vehicle: saline 92 % of control | dose: 120.0 mg/kg/injection, schedule: Q01DX005 (ip), vehicle: saline 92 % of control

O=C(O)CCSSCCCS(=O)O
inactive: dose: 50.0 mg/kg/injection, schedule: Q01DX005 (ip), vehicle: saline 109 % of control | dose: 100.0 mg/kg/injection, schedule: Q01DX005 (ip), vehicle: saline 114 % of control | dose: 200.0 mg/kg/injection, schedule: Q01DX005 (ip), vehicle: saline 124 % of control

C[n+]1ccc2ccccc2c1
inactive: dose: 15.0 mg/kg/injection, schedule: Q01DX005 (ip), vehicle: saline with Tween-80 109 % of control | dose: 30.0 mg/kg/injection, schedule: Q01DX005 (ip), vehicle: saline with Tween-80 100 % of control | [1] 100 % of control and 104 % of control

CCN(CC)CCNC(=O)c1ccc2c(c1)C(=O)c1ccccc1C2=O
inactive: dose: 100.0 mg/kg/injection, schedule: Q04DX003 (ip), vehicle: saline 108 % of control | dose: 200.0 mg/kg/injection, schedule: Q04DX003 (ip), vehicle: saline 119 % of control

CCCCCCC(=O)N1SC(NC(=O)OC)=Nc2ccccc21
inactive: dose: 50.0 mg/kg/injection, schedule: Q01DX005 (ip), vehicle: acetone 108 % of control | dose: 100.0 mg/kg/injection, schedule: Q01DX005 (ip), vehicle: acetone 102 % of control | dose: 200.0 mg/kg/injection, schedule: Q01DX005 (ip), vehicle: acetone 102 % of control

CCOC(=O)NN(C(=O)OCC)c1c(NC)n(C)c(=O)n(C)c1=O
inactive: dose: 50.0 mg/kg/injection, schedule: Q01DX009 (ip), vehicle: Klucel (hydroxypropylcellulose) (HPC) 100 % of control | [3] 106 % of control | [4] 89 % of control

N#C/C(=C\c1ccc(Cl)cc1)c1ccccc1
inactive: [5] 96 % of control | [6] 100 % of control | [7] 95 % of control | dose: 100.0 mg/kg/injection, schedule: Q01DX009 (ip), vehicle: saline 98 % of control and 96 % of control | dose: 200.0 mg/kg/injection, schedule: Q01DX009 (ip), vehicle: saline with Tween-80 98 % of control | dose: 200.0 mg/kg/injection, schedule: Q01DX009 (ip), vehicle: saline 99 % of control and 92 % of control | dose: 400.0 mg/kg/injection, schedule: Q01DX009 (ip), vehicle: saline with Tween-80 100 % of control | dose: 400.0 mg/kg/injection, schedule: Q01DX009 (ip), vehicle: saline 90 % of control and 91 % of control

COC(=O)/C=C1/C(=O)N(C)c2ccccc21
inactive: dose: 12.5 mg/kg/injection, schedule: Q01DX009 (ip), vehicle: saline with Tween-80 98 % of control and 102 % of control | dose: 25.0 mg/kg/injection, schedule: Q01DX009 (ip), vehicle: saline with Tween-80 102 % of control and 111 % of control and 90 % of control | [5] 100 % of control and 106 % of control and 92 % of control | [7] 106 % of control and 110 % of control and 113 % of control

CCOc1c(N=Nc2ccccc2Cl)c(-c2ccccc2)nn1C(N)=S
inactive: [8] 94 % of control | dose: 100.0 mg/kg/injection, schedule: Q01DX005 (ip), vehicle: saline with Tween-80 90 % of control | dose: 200.0 mg/kg/injection, schedule: Q01DX005 (ip), vehicle: saline with Tween-80 102 % of control

CCCn1c(C)nc2cc(C)cc(N)c21
inactive: dose: 12.5 mg/kg/injection, schedule: Q01DX005 (ip), vehicle: saline with Tween-80 100 % of control | dose: 25.0 mg/kg/injection, schedule: Q01DX005 (ip), vehicle: saline with Tween-80 89 % of control | [8] 90 % of control and 94 % of control

CS(=O)(=O)Nc1cccc2c1-c1ccccc1C2=O
inactive: [9] 96 % of control | [10] 101 % of control | [11] 88 % of control

Oc1cc2c(cc1C(c1ccc(F)cc1)n1ccnc1)OCO2 (stereo not drawn)
inactive: dose: 60.0 mg/kg/injection, schedule: Q01DX005 (ip), vehicle: Klucel (hydroxypropylcellulose) (HPC) 96 % of control | dose: 120.0 mg/kg/injection, schedule: Q01DX005 (ip), vehicle: Klucel (hydroxypropylcellulose) (HPC) 94 % of control | dose: 240.0 mg/kg/injection, schedule: Q01DX005 (ip), vehicle: Klucel (hydroxypropylcellulose) (HPC) 91 % of control

CCOC(=O)C(=CC(CC)(C(=O)OCC)C(=O)OCC)C(=O)OCC
inactive: dose: 100.0 mg/kg/injection, schedule: Q04DX003 (ip), vehicle: saline with Tween-80 110 % of control | dose: 200.0 mg/kg/injection, schedule: Q04DX003 (ip), vehicle: saline with Tween-80 110 % of control | dose: 300.0 mg/kg/injection, schedule: Q04DX003 (ip), vehicle: saline 109 % of control | dose: 450.0 mg/kg/injection, schedule: Q04DX003 (ip), vehicle: saline 100 % of control | dose: 600.0 mg/kg/injection, schedule: Q04DX003 (ip), vehicle: saline 109 % of control

COC(=O)c1c(C)cc(OC)c(C/C=C(\C)CCCc2coc(C=C(C)C)c2)c1OC
inactive: dose: 4.5 mg/kg/injection, schedule: Q01DX005 (ip), vehicle: Klucel (hydroxypropylcellulose) (HPC) 106 % of control | dose: 9.0 mg/kg/injection, schedule: Q01DX005 (ip), vehicle: Klucel (hydroxypropylcellulose) (HPC) 100 % of control | dose: 18.0 mg/kg/injection, schedule: Q01DX005 (ip), vehicle: Klucel (hydroxypropylcellulose) (HPC) 99 % of control | dose: 36.0 mg/kg/injection, schedule: Q01DX005 (ip), vehicle: Klucel (hydroxypropylcellulose) (HPC) 98 % of control | [9] 97 % of control | dose: 72.0 mg/kg/injection, schedule: Q01DX005 (ip), vehicle: Klucel (hydroxypropylcellulose) (HPC) 104 % of control | [10] 98 % of control | [11] 99 % of control

CC(C)CNC(=O)NCCCCCCNC(=O)NCC(C)C
inactive: [1] 94 % of control | [2] 93 % of control | dose: 240.0 mg/kg/injection, schedule: Q01DX005 (ip), vehicle: saline with Tween-80 93 % of control

[N-]=[N+]=C1N=Nc2ccccc21
inactive: dose: 0.78 mg/kg/injection, schedule: Q01DX005 (ip), vehicle: Klucel (hydroxypropylcellulose) (HPC) 99 % of control | dose: 1.56 mg/kg/injection, schedule: Q01DX005 (ip), vehicle: Klucel (hydroxypropylcellulose) (HPC) 107 % of control | dose: 3.12 mg/kg/injection, schedule: Q01DX005 (ip), vehicle: Klucel (hydroxypropylcellulose) (HPC) 107 % of control

CC1=CC(=C2C(=O)c3ccccc3C2=O)N(CCN2CCCCC2)C=C1
inactive: [9] 93 % of control | [10] 102 % of control | [11] 93 % of control

CCCCCCCCC(=O)c1c(OC)oc(/C=N/NC(N)=S)cc1=O
inactive: [3] 86 % of control | [4] 91 % of control | dose: 400.0 mg/kg/injection, schedule: Q01DX009 (ip), vehicle: Klucel (hydroxypropylcellulose) (HPC) 98 % of control

ClCc1ccc(Oc2ccc(CCl)cc2)cc1
inactive: dose: 12.5 mg/kg/injection, schedule: Q01DX009 (ip), vehicle: Klucel (hydroxypropylcellulose) (HPC) 120 % of control

N=C(N)SCCCC(=O)O
inactive: dose: 12.5 mg/kg/injection, schedule: Q01DX009 (ip), vehicle: saline 102 % of control | dose: 25.0 mg/kg/injection, schedule: Q01DX009 (ip), vehicle: saline 120 % of control | [6] 95 % of control
